According to patent publication US9834558B2, “Substituted bridged urea analogs as sirtuin modulators” (GLAXOSMITHKLINE LLC, priority 2013, dated 2017):
Read-outs that look alike come from different tables or passages of the source. Each block holds one compound with its values, some of them ahead of it.

Molecular target: T1, SIRT1 (Homo sapiens, UniProt Q96EB6)
T1 sequence (Q96EB6 1-747): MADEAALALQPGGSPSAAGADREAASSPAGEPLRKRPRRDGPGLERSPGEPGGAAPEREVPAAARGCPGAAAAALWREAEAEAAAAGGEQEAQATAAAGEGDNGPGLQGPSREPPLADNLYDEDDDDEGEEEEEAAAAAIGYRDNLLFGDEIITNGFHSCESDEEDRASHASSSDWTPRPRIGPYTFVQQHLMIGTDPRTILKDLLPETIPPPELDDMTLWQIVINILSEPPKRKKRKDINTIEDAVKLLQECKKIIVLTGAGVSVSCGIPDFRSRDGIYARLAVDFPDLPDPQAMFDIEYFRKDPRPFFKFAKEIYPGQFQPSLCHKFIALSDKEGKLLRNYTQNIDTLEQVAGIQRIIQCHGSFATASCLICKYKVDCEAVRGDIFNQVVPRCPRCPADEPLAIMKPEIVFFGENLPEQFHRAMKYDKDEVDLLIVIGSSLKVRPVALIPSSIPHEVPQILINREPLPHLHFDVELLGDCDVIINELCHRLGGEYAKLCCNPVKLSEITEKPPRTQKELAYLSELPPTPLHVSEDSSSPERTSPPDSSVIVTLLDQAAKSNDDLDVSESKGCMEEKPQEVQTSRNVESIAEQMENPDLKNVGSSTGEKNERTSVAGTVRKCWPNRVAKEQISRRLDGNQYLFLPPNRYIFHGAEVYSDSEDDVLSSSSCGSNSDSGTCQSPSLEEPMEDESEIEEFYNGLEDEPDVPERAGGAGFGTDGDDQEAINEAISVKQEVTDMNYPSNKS
Experiment: Trp mass spectrometry assay of SIRT1 activation
Type: biochemical
Details: for TRP Activity (EC1.5): EC1.5 = concentration that results in 150% activation of SIRT1
How it was run: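 N-terminal His-tagged human SIRT1 (10 nM, E. coli BL21(DE3)) with 0.5 μM Ac-RHKK(Ac)W-NH2 peptide and 120 μM βNAD+, 25 min at 25 °C in HEPES pH 7.5, formic acid stop. OAADPR or deacetylated peptide quantified by mass spectrometry; EC1.5 (50% activity increase over control) and Percent Maximum Activation reported.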

[1] = Trp peptide substrate, concentration giving 150% activation of SIRT1
[2] = Trp peptide assay, maximum activity relative to control (100%), read-out: TRP MAX RESP (percent maximum fold activation)
[3] = concentration giving 150% activation of SIRT1, Trp peptide substrate
[4] = Trp mass spectrometry assay, concentration of test compound giving 150% activation of SIRT1
[5] = Trp mass spectrometry assay, EC1.5 = concentration of test compound that results in 150% activation of SIRT1

- Tryp AVG EC1.5 (μM) [1]: A (A (EC1.5<1 μM))
SMILES: CCn1ncc2c(NC(=O)N3c4nc(-c5cccc(C(F)(F)F)c5)ccc4N4CC[C@H]3C4)cccc21 [81 (9)]

- TRP Activity (EC1.5) (Trp peptide assay): A (A (EC1.5<1 μM))
- Emax [2]: > 150%
SMILES: Cc1cc(-c2ccc3c(n2)N(C(=O)Nc2ccc4[nH]ncc4n2)[C@H]2CCN3C2)ccn1 [(9S)-5-(2-methylpyridin-4-yl)-N-{1H-pyrazolo[4,3-b]pyridin-5-yl}-1,6,8-triazatricyclo[7.2.1.0 {2,7}]dodeca-2(7),3,5-triene-8-carboxamide]

- Tryp AVG EC1.5 (μM) [3]: A (A (EC1.5<1 μM))
SMILES: NCCCc1ccc(NC(=O)N2c3nc(-c4cccc(C(F)(F)F)c4)ccc3N3CCC[C@H]2C3)cc1-c1cnco1 [Example 767]

- Tryp AVG EC1.5 (μM) [4]: B (B (EC1.5 1-25 μM))
SMILES: NC(=O)c1cncc(-c2ccc3c(n2)N(C(=O)Nc2ccccn2)[C@H]2CCN3C2)c1 [Example 371]

SMILES: Cc1cc(-c2ccc3c(n2)N(C(=O)NC2CC2)[C@H]2CCN3C2)ccn1 [(9S)-N-cyclopropyl-5-(2-methylpyridin-4-yl)-1,6,8-triazatricyclo[7.2.1.0 {2,7}]dodeca-2,4,6-triene-8-carboxamide]
- TRP Activity (EC1.5) (Trp peptide assay): B (B (EC1.5 1-25 μM))
- Emax (read-out: TRP MAX RESP (percent maximum fold activation)): > 150%

- TRP Activity (EC1.5) (Trp peptide assay): B (B (EC1.5 1-25 μM))
- Emax [2]: > 150%
SMILES: Cn1nc(C(F)(F)F)cc1-c1ccc2c(n1)N(C(=O)Nc1cnccn1)[C@H]1CCN2C1 [(9S)-5-[1-methyl-3-(trifluoromethyl)-1H-pyrazol-5-yl]-N-(pyrazin-2-yl)-1,6,8-triazatricyclo[7.2.1.0 {2,7}]dodeca-2(7),3,5-triene-8-carboxamide]

- Tryp AVG EC1.5 (μM) [1]: B (B (EC1.5 1-25 μM))
SMILES: Cc1cc(C(F)(F)F)nc(NC(=O)N2c3nc(-c4cccc(C(F)(F)F)c4)ccc3N3CC[C@H]2C3)n1 [Example 94]

- Tryp AVG EC1.5 (μM) [5]: B (B (EC1.5 1-25 μM))
SMILES: COc1cc(NC(=O)N2c3nc(-c4ccnc(N5CC[C@@H](F)C5)c4)ccc3N3CC[C@H]2C3)ncn1 [Example 424]

- Tryp AVG EC1.5 (μM) [3]: A (A (EC1.5<1 μM))
SMILES: CS(=O)(=O)c1cccc(-c2ccc3c(n2)N(C(=O)Nc2cncc(-c4cnco4)c2)[C@H]2CCN3C2)c1 [Example 724]

- Tryp AVG EC1.5 (μM) [5]: A (A (EC1.5<1 μM))
SMILES: O=C(O)c1cc(NC(=S)NCc2ccc(NC(=O)N3c4nc(-c5cccc(C(F)(F)F)c5)ccc4N4CCC[C@H]3C4)cc2)ccc1-c1c2ccc(=O)cc-2oc2cc(O)ccc12 [Example 563]

- TRP Activity (EC1.5) (Trp peptide assay): B (B (EC1.5 1-25 μM))
- Emax [2]: > 150%
SMILES: Cc1cc(-c2ccc3c(n2)N(C(=O)Nc2cccnn2)[C@H]2CCN3C2)ccn1 [(9S)-5-(2-methylpyridin-4-yl)-N-(pyridazin-3-yl)-1,6,8-triazatricyclo[7.2.1.0 {2,7}]dodeca-2(7),3,5-triene-8-carboxamide]

- Tryp AVG EC1.5 (μM) [5]: B (B (EC1.5 1-25 μM))
SMILES: O=C(Nc1cccnc1)N1c2nc(-c3cccnc3)ccc2N2CCC[C@H]1C2 [Example 455]

- TRP Activity (EC1.5) (Trp peptide assay): A (A (EC1.5<1 μM))
- Emax [2]: > 150%
SMILES: Cc1cc(-c2ccc3c(n2)N(C(=O)Nc2cnc(C4CC4)cn2)[C@H]2CCN3C2)ccn1 [(9S)-N-(5-cyclopropylpyrazin-2-yl)-5-(2-methylpyridin-4-yl)-1,6,8-triazatricyclo[7.2.1.0 {2,7}]dodeca-2(7),3,5-triene-8-carboxamide]

- TRP Activity (EC1.5) (Trp peptide assay): A (A (EC1.5<1 μM))
- Emax [2]: > 150%
SMILES: Cc1cc(-c2ccc3c(n2)N(C(=O)Nc2cncc(C(C)C)n2)[C@H]2CCN3C2)ccn1 [(9S)-5-(2-methylpyridin-4-yl)-N-[6-(propan-2-yl)pyrazin-2-yl]-1,6,8-triazatricyclo[7.2.1.0^2,7]dodeca-2(7),3,5-triene-8-carboxamide]

- Tryp AVG EC1.5 (μM) [5]: B (B (EC1.5 1-25 μM))
- Emax (Trp mass spectrometry assay, percent maximum fold activation of SIRT1, read-out: Tryp % Fold Act): > 150%
SMILES: Cc1c(-c2ccc3c(n2)C(C(=O)Nc2cnccn2)[C@H]2CCN3C2)cnn1C (stereo partly drawn) [Example 532]

- Tryp AVG EC1.5 (μM) [4]: A (A (EC1.5<1 μM))
SMILES: N#Cc1cccc(-c2ccc3c(n2)N(C(=O)Nc2cncc(F)c2)[C@H]2CCCN3C2)c1 [Example 353]

- Tryp AVG EC1.5 (μM) [5]: B (B (EC1.5 1-25 μM))
SMILES: O=C(Nc1ccc2c(c1)CCC2)N1c2nc(-c3cccc(C(F)(F)F)c3)ccc2N2CC[C@H]1C2 [Example 624]
